The values below come from patent US7226944B2, “Taxanes having a C7 carbonate substituent” (FSU Research Foundation, Inc., priority 2000, dated 2007).

Molecules are shown by their SMILES.

In the test the test system is HCT116. As to the kind of experiment: In vitro cytotoxicity measured by the cell colony formation assay. The settings on record: HCT116 cells; drug concentration producing 50% inhibition of colony formation; 72 h with drug at 37° C., colonies counted after 7 days; read-out: IN VITRO ID 50 (nm) HCT116. It is filed as cell-based. Here is the method:
Four hundred cells (HCT116) were plated in 60 mm Petri dishes containing 2.7 mL of medium (modified McCoy's 5a medium containing 10% fetal bovine serum and 100 units/mL penicillin and 100 µg/mL streptomycin). The cells were incubated in a CO2 incubator at 37° C. for 5 h for attachment to the bottom of Petri dishes. The compounds identified in Example 2 were made up fresh in medium at ten times the final concentration, and then 0.3 mL of this stock solution was added to the 2.7 mL of medium in the dish. The cells were then incubated with drugs for 72 h at 37° C. At the end of incubation the drug-containing media were decanted, the dishes were rinsed with 4 mL of Hank's Balance Salt Solution (HBSS), 5 mL of fresh medium was added, and the dishes were returned to the incubator for colony formation. The cell colonies were counted using a colony counter after incubation for 7 days.

Take `CCOC(=O)O[C@H]1C[C@H]2OC[C@@]2(OC(C)=O)C2[C@H](OC(=O)c3ccccc3)[C@]3(O)C[C@H](OC(=O)[C@H](O)[C@@H](NC(=O)c4cccs4)c4cccs4)C(C)=C([C@@H](O)C(=O)[C@@]21C)C3(C)C` (some centres unmarked) [Compound 4455]: the IC50 is < 1 nM.
In the case of `CCOC(=O)O[C@H]1C[C@H]2OC[C@@]2(OC(C)=O)C2[C@H](OC(=O)c3ccccc3)[C@]3(O)C[C@H](OC(=O)[C@H](O)[C@@H](NC(=O)OC(C)(C)C)c4ccoc4)C(C)=C([C@@H](O)C(=O)[C@@]21C)C3(C)C` (some centres unmarked) [Compound 4464] it was < 1 nM; in that of `COC(=O)O[C@H]1C[C@H]2OC[C@@]2(OC(C)=O)C2[C@H](OC(=O)c3ccccc3)[C@]3(O)C[C@H](OC(=O)[C@H](O)[C@@H](NC(=O)OC(C)(C)C)c4ccsc4)C(C)=C([C@@H](O)C(=O)[C@@]21C)C3(C)C` (some centres unmarked) [Compound 4474], < 1 nM; in that of `COC(=O)O[C@H]1C[C@H]2OC[C@@]2(OC(C)=O)C2[C@H](OC(=O)c3ccccc3)[C@]3(O)C[C@H](OC(=O)[C@H](O)[C@H](C=C(C)C)NC(=O)OC(C)(C)C)C(C)=C([C@@H](O)C(=O)[C@@]21C)C3(C)C` (some centres unmarked) [Compound 4484], < 1 nM.
Consider `CCOC(=O)O[C@H]1C[C@H]2OC[C@@]2(OC(C)=O)C2[C@H](OC(=O)c3ccccc3)[C@]3(O)C[C@H](OC(=O)[C@H](O)[C@@H](NC(=O)OC(C)(C)C)c4ccsc4)C(C)=C([C@@H](O)C(=O)[C@@]21C)C3(C)C` (some centres unmarked) [Compound 4500], for which the IC50 was < 1 nM.
Consider `CC(=O)O[C@H]1C[C@H]2OC[C@@]2(OC(C)=O)C2[C@H](OC(=O)c3ccccc3)[C@]3(O)C[C@H](OC(=O)[C@H](O)[C@@H](NC(=O)OCC(C)C)c4ccsc4)C(C)=C([C@@H](O)C(=O)[C@@]21C)C3(C)C` (some centres unmarked) [Compound 4515], for which the IC50 was < 10 nM.
Under `CCOC(=O)O[C@H]1C[C@H]2OC[C@@]2(OC(C)=O)C2[C@H](OC(=O)c3ccccc3)[C@]3(O)C[C@H](OC(=O)[C@H](O)[C@H](C=C(C)C)NC(=O)OC(C)(C)C)C(C)=C([C@@H](O)C(=O)[C@@]21C)C3(C)C` (some centres unmarked) [Compound 4524] stands < 1 nM; under `COC(=O)O[C@H]1C[C@H]2OC[C@@]2(OC(C)=O)C2[C@H](OC(=O)c3ccccc3)[C@]3(O)C[C@H](OC(=O)[C@H](O)[C@@H](NC(=O)OC(C)(C)C)c4ccco4)C(C)=C([C@@H](O)C(=O)[C@@]21C)C3(C)C` (some centres unmarked) [Compound 4533], < 1 nM; under `CC(=O)O[C@H]1C[C@H]2OC[C@@]2(OC(C)=O)C2[C@H](OC(=O)c3ccccc3)[C@]3(O)C[C@H](OC(=O)[C@H](O)[C@@H](NC(=O)OC(C)(C)C)C4CC4)C(C)=C([C@@H](O)C(=O)[C@@]21C)C3(C)C` (some centres unmarked) [Compound 4555], < 1 nM.
In the case of `COC(=O)O[C@H]1C[C@H]2OC[C@@]2(OC(C)=O)C2[C@H](OC(=O)c3ccccc3)[C@]3(O)C[C@H](OC(=O)[C@H](O)[C@@H](NC(=O)OC(C)(C)C)C4CC4)C(C)=C([C@@H](O)C(=O)[C@@]21C)C3(C)C` (some centres unmarked) [Compound 4566] it was < 1 nM; in that of `COC(=O)O[C@H]1C[C@H]2OC[C@@]2(OC(C)=O)C2[C@H](OC(=O)c3ccccc3)[C@]3(O)C[C@H](OC(=O)[C@H](O)[C@@H](NC(=O)OCC(C)C)c4ccoc4)C(C)=C([C@@H](O)C(=O)[C@@]21C)C3(C)C` (some centres unmarked) [Compound 4584], < 10 nM.
Under `CCOC(=O)O[C@H]1C[C@H]2OC[C@@]2(OC(C)=O)C2[C@H](OC(=O)c3ccccc3)[C@]3(O)C[C@H](OC(=O)[C@H](O)[C@@H](NC(=O)OCC(C)C)c4ccoc4)C(C)=C([C@@H](O)C(=O)[C@@]21C)C3(C)C` (some centres unmarked) [Compound 4624] stands < 10 nM; under `COC(=O)O[C@H]1C[C@H]2OC[C@@]2(OC(C)=O)C2[C@H](OC(=O)c3ccccc3)[C@]3(O)C[C@H](OC(=O)[C@H](O)[C@H](C=C(C)C)NC(=O)OCC(C)C)C(C)=C([C@@H](O)C(=O)[C@@]21C)C3(C)C` (some centres unmarked) [Compound 4644], < 10 nM.
In the case of `COC(=O)O[C@H]1C[C@H]2OC[C@@]2(OC(C)=O)C2[C@H](OC(=O)c3ccccc3)[C@]3(O)C[C@H](OC(=O)[C@H](O)[C@@H](NC(=O)OCC(C)C)c4ccco4)C(C)=C([C@@H](O)C(=O)[C@@]21C)C3(C)C` (some centres unmarked) [Compound 4656], the IC50 was < 1 nM.
Take `COC(=O)O[C@H]1C[C@H]2OC[C@@]2(OC(C)=O)C2[C@H](OC(=O)c3ccccc3)[C@]3(O)C[C@H](OC(=O)[C@H](O)[C@@H](NC(=O)OCC(C)C)c4ccsc4)C(C)=C([C@@H](O)C(=O)[C@@]21C)C3(C)C` (some centres unmarked) [Compound 4674]: the IC50 was < 1 nM.
With `CCOC(=O)O[C@H]1C[C@H]2OC[C@@]2(OC(C)=O)C2[C@H](OC(=O)c3ccccc3)[C@]3(O)C[C@H](OC(=O)[C@H](O)[C@H](C=C(C)C)NC(=O)OCC(C)C)C(C)=C([C@@H](O)C(=O)[C@@]21C)C3(C)C` (some centres unmarked) [Compound 4688], the IC50 was < 10 nM.
Under `CCOC(=O)O[C@H]1C[C@H]2OC[C@@]2(OC(C)=O)C2[C@H](OC(=O)c3ccccc3)[C@]3(O)C[C@H](OC(=O)[C@H](O)[C@@H](NC(=O)OCC(C)C)c4ccco4)C(C)=C([C@@H](O)C(=O)[C@@]21C)C3(C)C` (some centres unmarked) [Compound 4696] stands < 1 nM.
For `C/C=C/C(=O)N[C@@H](c1ccco1)[C@@H](O)C(=O)O[C@H]1C[C@@]2(O)[C@@H](OC(=O)c3ccccc3)C3[C@](C)(C(=O)[C@H](O)C(=C1C)C2(C)C)[C@@H](OC(=O)OC)C[C@H]1OC[C@@]31OC(C)=O` (some centres unmarked) [Compound 4744], the IC50 is < 1 nM.
Under `C/C=C/C(=O)N[C@@H](c1cccs1)[C@@H](O)C(=O)O[C@H]1C[C@@]2(O)[C@@H](OC(=O)c3ccccc3)C3[C@](C)(C(=O)[C@H](O)C(=C1C)C2(C)C)[C@@H](OC(=O)OC)C[C@H]1OC[C@@]31OC(C)=O` (some centres unmarked) [Compound 4766] stands < 1 nM; under `C/C=C/C(=O)N[C@@H](c1ccco1)[C@@H](O)C(=O)O[C@H]1C[C@@]2(O)[C@@H](OC(=O)c3ccccc3)C3[C@](C)(C(=O)[C@H](O)C(=C1C)C2(C)C)[C@@H](OC(=O)OCC)C[C@H]1OC[C@@]31OC(C)=O` (some centres unmarked) [Compound 4818], < 1 nM.
Under `C/C=C/C(=O)N[C@@H](c1cccs1)[C@@H](O)C(=O)O[C@H]1C[C@@]2(O)[C@@H](OC(=O)c3ccccc3)C3[C@](C)(C(=O)[C@H](O)C(=C1C)C2(C)C)[C@@H](OC(=O)OCC)C[C@H]1OC[C@@]31OC(C)=O` (some centres unmarked) [Compound 4855] stands < 1 nM; under `C/C=C/C(=O)N[C@@H](c1ccoc1)[C@@H](O)C(=O)O[C@H]1C[C@@]2(O)[C@@H](OC(=O)c3ccccc3)C3[C@](C)(C(=O)[C@H](O)C(=C1C)C2(C)C)[C@@H](OC(=O)OC)C[C@H]1OC[C@@]31OC(C)=O` (some centres unmarked) [Compound 4877], < 1 nM.
In the case of `C/C=C/C(=O)N[C@@H](c1ccoc1)[C@@H](O)C(=O)O[C@H]1C[C@@]2(O)[C@@H](OC(=O)c3ccccc3)C3[C@](C)(C(=O)[C@H](O)C(=C1C)C2(C)C)[C@@H](OC(=O)OCC)C[C@H]1OC[C@@]31OC(C)=O` (some centres unmarked) [Compound 4904] it was < 10 nM.
With `C/C=C/C(=O)N[C@@H](c1ccsc1)[C@@H](O)C(=O)O[C@H]1C[C@@]2(O)[C@@H](OC(=O)c3ccccc3)C3[C@](C)(C(=O)[C@H](O)C(=C1C)C2(C)C)[C@@H](OC(=O)OC)C[C@H]1OC[C@@]31OC(C)=O` (some centres unmarked) [Compound 4969], the IC50 is < 1 nM.
In the case of `CCOC(=O)O[C@H]1C[C@H]2OC[C@@]2(OC(C)=O)C2[C@H](OC(=O)c3ccccc3)[C@]3(O)C[C@H](OC(=O)[C@H](O)[C@@H](NC(=O)OCC(C)C)c4ccsc4)C(C)=C([C@@H](O)C(=O)[C@@]21C)C3(C)C` (some centres unmarked) [Compound 4979] it was < 10 nM.
Under `C/C=C/C(=O)N[C@@H](c1ccsc1)[C@@H](O)C(=O)O[C@H]1C[C@@]2(O)[C@@H](OC(=O)c3ccccc3)C3[C@](C)(C(=O)[C@H](O)C(=C1C)C2(C)C)[C@@H](OC(=O)OCC)C[C@H]1OC[C@@]31OC(C)=O` (some centres unmarked) [Compound 4999] stands < 1 nM.
In the case of `CCOC(=O)O[C@H]1C[C@H]2OC[C@@]2(OC(C)=O)C2[C@H](OC(=O)c3ccccc3)[C@]3(O)C[C@H](OC(=O)[C@H](O)[C@@H](NC(=O)OC(C)(C)C)C4CC4)C(C)=C([C@@H](O)C(=O)[C@@]21C)C3(C)C` (some centres unmarked) [Compound 5165] it was < 1 nM; in that of `COC(=O)O[C@H]1C[C@H]2OC[C@@]2(OC(C)=O)C2[C@H](OC(=O)c3ccccc3)[C@]3(O)C[C@H](OC(=O)[C@H](O)[C@@H](NC(=O)OCC(C)C)C4CC4)C(C)=C([C@@H](O)C(=O)[C@@]21C)C3(C)C` (some centres unmarked) [Compound 5211], < 10 nM; in that of `CCOC(=O)O[C@H]1C[C@H]2OC[C@@]2(OC(C)=O)C2[C@H](OC(=O)c3ccccc3)[C@]3(O)C[C@H](OC(=O)[C@H](O)[C@@H](NC(=O)OCC(C)C)C4CC4)C(C)=C([C@@H](O)C(=O)[C@@]21C)C3(C)C` (some centres unmarked) [Compound 5225], < 10 nM.
Take `CC(=O)O[C@@]12CO[C@@H]1C[C@H](OC(=O)OCc1ccccc1)[C@@]1(C)C(=O)[C@H](O)C3=C(C)[C@@H](OC(=O)[C@H](O)[C@@H](NC(=O)OC(C)(C)C)c4ccco4)C[C@@](O)([C@@H](OC(=O)c4ccccc4)C12)C3(C)C` (some centres unmarked) [Compound 5433]: the IC50 was < 1 nM.
Under `CC(=O)O[C@@]12CO[C@@H]1C[C@H](OC(=O)OCc1ccccc1)[C@@]1(C)C(=O)[C@H](O)C3=C(C)[C@@H](OC(=O)[C@H](O)[C@@H](NC(=O)C=C(C)C)c4ccco4)C[C@@](O)([C@@H](OC(=O)c4ccccc4)C12)C3(C)C` (some centres unmarked) [Compound 5466] stands < 1 nM.
Under `CCOC(=O)O[C@H]1C[C@H]2OC[C@@]2(OC(C)=O)C2[C@H](OC(=O)c3ccccc3)[C@]3(O)C[C@H](OC(=O)[C@H](O)[C@@H](NC(=O)C=C(C)C)c4ccco4)C(C)=C([C@@H](O)C(=O)[C@@]21C)C3(C)C` (some centres unmarked) [Compound 6151] stands < 1 nM.
